Experiments:
Format in all cases: in vivo, healthy adult subjects
[1] = Drug interaction study of pemafibrate with clopidogrel (plasma pharmacokinetics of pemafibrate); conditions: for AUC(0-inf) / Cmax: human, plasma, po; for AUC0-inf ratio (concomitant use/single use) / Cmax ratio (concomitant use/single use): ratio of geometric means
Procedure: A study was conducted to investigate the effect of clopidogrel on the pharmacokinetics of pemafibrate in healthy adult subjects.
Subjects were orally administered on the following schedule. Pemafibrate administration on Days 1, 4, and 7 was carried out under fasting for at least 8 hours and maintained fasting for 4 hours after administration. • Day 1: Pemafibrate 0.4 mg alone • Day 4: A single dose of 0.4 mg of pemafibrate plus 391.5 mg of clopidogrel sulfate (equivalent to 300 mg of clopidogrel) • Day 5 to 6: Clopidogrel Sulfate 91.875 mg (equivalent to Clopidogrel 75 mg) alone • Day 7: A single dose of 0.4 mg of pemafibrate and 91.875 mg of clopidogrel sulfate (equivalent to 75 mg of clopidogrel) • Day 8 to 9: Clopidogrel Sulfate 91.875 mg (equivalent to Clopidogrel 75 mg) alone Measurement
Plasma concentration of pemafibrate was measured on blood samples from patients taken prior to and at 0.25, 0.5, 1, 1.5, 2, 3, 4, 6, 8, 10, 12, 14, 16, 24, 36, 48, 72 hours after administration of the drug on Days 1, 4, and 7.
For estimates of the Cmax of pemafibrate and the area under the concentration-time curves (AUC0-inf) up to infinity hours, the geometric mean values and the ratios of the geometric mean values of the single-dose concomitant administration (Day 4) to those for the single administration (Day 1) are shown in Table 4.
For the Cmax and AUC0-inf of pemafibrate, the geometric mean values and the ratios of the geometric mean values for concomitant administration after repeated administration of clopidogrel (day 7) to those for the single administration (day 1) are shown in Table 5.

[2] = Drug interaction study of pemafibrate with rifampicin (plasma pharmacokinetics of pemafibrate); conditions: for AUC(0-inf) / Cmax: human, plasma, po, 0.4 mg, geometric mean, oral, fasting
Procedure: A study was conducted to investigate the effect of rifampicin on the pharmacokinetics of pemafibrate in healthy adult subjects.
Subjects were orally administered on the following schedule. The administration of 0.4 mg of pemafibrate on Days 1 and 4 was carried out under fasting for at least 8 hours, and the fasting was maintained for 4 hours after the administration. • Day 1: Pemafibrate 0.4 mg alone • Day 4: A single dose of 0.4 mg of pemafibrate plus 600 mg of rifampicin • Days 5-6: Rifampicin 600 mg alone [Measurement]
(§1) Plasma concentration of pemafibrate was measured on blood samples from patients taken prior to and at 0.25, 0.5, 1, 1.5, 2, 3, 4, 6, 8, 10, 12, 14, 16, 24, 36, 48, 72 hours after administration of the drug on Days 1 and 4.
For estimates of the Cmax of pemafibrate and the area under the concentration-time curves (AUC0-inf) up to infinity hours, the geometric mean values and the ratios of the geometric mean values for concomitant administration to those for the single administration are shown in Table 1.

[3] = Drug interaction study of pemafibrate with cyclosporine (plasma pharmacokinetics of pemafibrate); conditions: for AUC(0-inf) / Cmax: human, plasma, po, 0.4 mg, geometric mean, oral, fasting
Procedure: A study was conducted to investigate the effect of cyclosporine on the pharmacokinetics of pemafibrate in healthy adult subjects.
Subjects were orally administered on the following schedule. Drug administration was carried out under fasting for at least 8 hours, and fasting was maintained for 4 hours after administration. • Day 1: Pemafibrate 0.4 mg alone • Day 4: Combined single dose of 0.4 mg of pemafibrate and 600 mg of cyclosporine (Neoral® or its equivalent) [Measurement]
as §1
For estimates of the Cmax of pemafibrate and the area under the concentration-time curves (AUC0-inf) up to infinity hours, the geometric mean values and the ratios of the geometric mean values for concomitant administration to those for the single administration are shown in Table 3.

[4] = Drug interaction study of pemafibrate with clarithromycin (plasma pharmacokinetics of pemafibrate); conditions: for AUC(0-inf) / Cmax: human, plasma, po, 0.4 mg, geometric mean
Procedure: A study was conducted to investigate the effect of clarithromycin on the pharmacokinetics of pemafibrate in healthy adult subjects.
20 healthy adult subjects
Subjects were orally administered on the following schedule. The administration of 0.4 mg of pemafibrate on Days 1 and 9 was carried out under fasting for at least 8 hours, and the fasting was maintained for 4 hours after the administration. • Day 1: Pemafibrate 0.4 mg alone • Day 4 to 8: Clarithromycin 500 mg twice per day (1000 mg/day) • Day 9: Pemafibrate 0.4 mg single dose and Clarithromycin 500 mg twice per day (1000 mg/day) • Day 10 to 11: Clarithromycin 500 mg twice per day (1000 mg/day) Measurement
Plasma concentration of pemafibrate was measured on blood samples from patients collected prior to and at 0.25, 0.5, 1, 1.5, 2, 3, 4, 6, 8, 10, 12, 14, 16, 24, 36, 48, 72 hours after administration of 0.4 mg of pemafibrate on Days 1 and 9.
For estimates of the Cmax of pemafibrate and the area under the concentration-time curves (AUC0-inf) up to infinity hours, the geometric mean values and the ratios of the geometric mean values for concomitant administration to those for the single administration are shown in Table 2.

[5] = Day 4 (clopidogrel 300 mg single dose) vs Day 1
[6] = Day 7 (after repeated clopidogrel, 75 mg) vs Day 1
[7] = Day 1, pemafibrate 0.4 mg alone, read-out: AUC0-inf, single administration
[8] = Day 1, pemafibrate 0.4 mg alone, read-out: Cmax, single administration
[9] = ratio of geometric means, with rifampicin 600 mg vs pemafibrate alone
[10] = ratio of geometric means, with cyclosporine 600 mg vs pemafibrate alone
[11] = ratio of geometric means, with clarithromycin 1000 mg/day vs pemafibrate alone

Structure (SMILES): CC[C@@H](Oc1cccc(CN(CCCOc2ccc(OC)cc2)c2nc3ccccc3o2)c1)C(=O)O [pemafibrate, (2R)-2-[3-({1,3-benzoxazol-2-yl[3-(4-methoxyphenoxy)propyl]amino}methyl)phenoxy]butanoic acid]
- plasma concentration of pemafibrate, concomitant vs alone ([1]; concomitant administration after repeated administration of clopidogrel (day 7) compared with pemafibrate alone (day 1)): increase in the plasma concentration of pemafibrate
- AUC0-inf, concomitant administration ([1]; geometric mean, Day 7, pemafibrate 0.4 mg plus clopidogrel sulfate 91.875 mg (equivalent to 75 mg of clopidogrel) after repeated administration of clopidogrel): 33.5611 ng·h/mL
- AUC(0-inf) ([1]; 0.4 mg, geometric mean, Day 1, pemafibrate 0.4 mg alone, oral, fasting, read-out: AUC0-inf, single administration): 16.1 ng·h/mL
- Cmax ([1]; 0.4 mg, geometric mean, Day 1, pemafibrate 0.4 mg alone, oral, fasting, read-out: Cmax, single administration): 4.77 ng/mL
- Cmax ([1]; 0.4 mg, geometric mean, Day 4, single dose pemafibrate 0.4 mg plus clopidogrel sulfate 391.5 mg (equivalent to 300 mg of clopidogrel), read-out: Cmax, concomitant administration): 7.08 ng/mL
- AUC(0-inf) ([1]; geometric mean, Day 4, single dose pemafibrate 0.4 mg plus clopidogrel sulfate 391.5 mg (equivalent to 300 mg of clopidogrel), read-out: AUC0-inf, concomitant administration): 38.1 ng·h/mL
- Cmax ([1]; geometric mean, Day 7, pemafibrate 0.4 mg plus clopidogrel sulfate 91.875 mg (equivalent to 75 mg of clopidogrel) after repeated administration of clopidogrel, read-out: Cmax, concomitant administration): 6.39 ng/mL
- AUC0-inf ratio (concomitant use/single use) [1, 5]: 2.3728
- Cmax ratio (concomitant use/single use) [1, 5]: 1.4855
- AUC0-inf ratio (concomitant use/single use) [1, 6]: 2.0876
- Cmax ratio (concomitant use/single use) [1, 6]: 1.3415
- plasma concentration of pemafibrate, concomitant vs alone ([1]; single-dose concomitant administration with clopidogrel (Day 4) compared with pemafibrate alone (Day 1)): increase in the plasma concentration of pemafibrate
- plasma concentration of pemafibrate, concomitant vs alone ([2]; concomitant administration with rifampicin compared with pemafibrate alone): increase in the plasma concentration of pemafibrate
- AUC(0-inf) [2, 7]: 20.1 ng·h/mL
- Cmax [2, 8]: 5.67 ng/mL
- AUC(0-inf) ([2]; Day 4, single dose pemafibrate 0.4 mg plus rifampicin 600 mg, read-out: AUC0-inf, concomitant administration): 219 ng·h/mL
- Cmax ([2]; Day 4, single dose pemafibrate 0.4 mg plus rifampicin 600 mg, read-out: Cmax, concomitant administration): 53.5 ng/mL
- AUC0-inf ratio (concomitant use/single use) [2, 9]: 10.9009
- Cmax ratio (concomitant use/single use) [2, 9]: 9.436
- plasma concentration of pemafibrate, concomitant vs alone ([3]; concomitant administration with cyclosporine compared with pemafibrate alone): increase in the plasma concentration of pemafibrate
- AUC(0-inf) [3, 7]: 13.4 ng·h/mL
- Cmax [3, 8]: 4.59 ng/mL
- AUC(0-inf) ([3]; Day 4, combined single dose pemafibrate 0.4 mg and cyclosporine 600 mg, read-out: AUC0-inf, concomitant administration): 187 ng·h/mL
- Cmax ([3]; Day 4, combined single dose pemafibrate 0.4 mg and cyclosporine 600 mg, read-out: Cmax, concomitant administration): 41.2 ng/mL
- AUC0-inf ratio (concomitant use/single use) [3, 10]: 13.9947
- Cmax ratio (concomitant use/single use) [3, 10]: 8.9644
- plasma concentration of pemafibrate, concomitant vs alone ([4]; concomitant administration with clarithromycin compared with pemafibrate alone): increase in the plasma concentration of pemafibrate
- AUC(0-inf) ([4]; Day 1, pemafibrate 0.4 mg alone, oral, fasting, read-out: AUC0-inf, single administration): 17 ng·h/mL
- Cmax ([4]; Day 1, pemafibrate 0.4 mg alone, oral, fasting, read-out: Cmax, single administration): 4.67 ng/mL
- AUC(0-inf) ([4]; Day 9, pemafibrate 0.4 mg single dose with clarithromycin 500 mg twice per day (given from Day 4), read-out: AUC0-inf, concomitant administration): 35.7 ng·h/mL
- Cmax ([4]; Day 9, pemafibrate 0.4 mg single dose with clarithromycin 500 mg twice per day (given from Day 4), read-out: Cmax, concomitant administration): 11.3 ng/mL
- AUC0-inf ratio (concomitant use/single use) [4, 11]: 2.0975
- Cmax ratio (concomitant use/single use) [4, 11]: 2.4246
